Data reported in article PMC11820409, “Synthesis and Evaluation of the AhR Activity of Indolo[3,2-b]carbazole Derivatives” (Molecules, 2025).
Where two headings read alike, the source gives them in different places.

What was measured:
[1] = molecular target: T1, AhR (Mus musculus, UniProt P30561); test: AhR induction, luciferase reporter gene (CALUX), mouse H1L7.5c3 cells; format: cell-based
T1 construct: cells that were stably transfected with a luciferase reporter gene; endogenous in cells; host or cells: H1L7.5c3 (mouse)
Experimental: (§1) The activity on AhR of the synthesized compounds was evaluated in cells that were stably transfected with a luciferase reporter gene. They were tested in four different cell lines, namely in human (HG2L7.5c1), mouse (H1L7.5c3), rat (H4L7.5c2) and guinea pig (G16L7.5c1) cells.
(§2) The synthesized alkaloids were evaluated for their ability to induce AhR in four different cell lines, more specifically in human (HG2L7.5c1), mouse (H1L7.5c3), rat (H4L7.5c2) and guinea pig (G16L7.5c1) cells that were stably transfected with a luciferase reporter gene. The results were calculated in EC50 (M) and compared to those of dioxin (TCDD), the principal ligand of the receptor. The protocol followed is described below.
(§3) Human, mouse, rat and guinea pig cells were grown in 100 mm cell culture plates (Corning Glass Works; Corning, NY, USA) using a sterile technique, maintained in alpha-minimum essential media (α-MEM) supplemented with 10% (v/v) fetal bovine serum (FBS) and G418 (1 mg/mL), and incubated at >80% humidity and 37◦C. For the CALUX analysis, plates of stable cell clones (approximately 80–100% confluent) were trypsinized and resuspended in 20 mL α-MEM. An aliquot (100 μL) of the indicated cell suspension was added into sterile 96-well tissue culture plates (Corning), and the plates were incubated for 24 h prior to ligand exposure, allowing the cells to reach confluence. Prior to ligand addition, the wells were washed with 1 × phosphate-buffered saline (PBS), and then, cells were incubated with the indicated concentration of DMSO (10 μL/mL) or corresponding solutions of TCDD or tested compounds in DMSO for 6 h or 24 h at 37 °C. After incubation, the cells were washed twice with PBS, 100 μL of 1 × Lysis buffer (Promega; Madison, WI, USA) was added to each well, and the plate was placed on a plate shaker at room temperature until the cells were lysed (approximately 20 min). Luciferase activity was measured using an automated microplate luminometer (Anthos Lucy2, Anthos Labtec Instruments, Wals/Salzburg, Austria) in enhanced flash mode with the automatic injection of 50 μL of Promega-stabilized luciferase reagent. Examples of the induction curves of the tested compounds are available in the Supplementary Materials.

[2] = molecular target: T2, AhR (Rattus norvegicus, UniProt P41738); test: AhR induction, luciferase reporter gene (CALUX), rat H4L7.5c2 cells; format: cell-based; settings: 6 h incubation
T2 construct: cells that were stably transfected with a luciferase reporter gene; endogenous in cells; host or cells: H4L7.5c2 (rat)
T2 sequence (P41738 10-853): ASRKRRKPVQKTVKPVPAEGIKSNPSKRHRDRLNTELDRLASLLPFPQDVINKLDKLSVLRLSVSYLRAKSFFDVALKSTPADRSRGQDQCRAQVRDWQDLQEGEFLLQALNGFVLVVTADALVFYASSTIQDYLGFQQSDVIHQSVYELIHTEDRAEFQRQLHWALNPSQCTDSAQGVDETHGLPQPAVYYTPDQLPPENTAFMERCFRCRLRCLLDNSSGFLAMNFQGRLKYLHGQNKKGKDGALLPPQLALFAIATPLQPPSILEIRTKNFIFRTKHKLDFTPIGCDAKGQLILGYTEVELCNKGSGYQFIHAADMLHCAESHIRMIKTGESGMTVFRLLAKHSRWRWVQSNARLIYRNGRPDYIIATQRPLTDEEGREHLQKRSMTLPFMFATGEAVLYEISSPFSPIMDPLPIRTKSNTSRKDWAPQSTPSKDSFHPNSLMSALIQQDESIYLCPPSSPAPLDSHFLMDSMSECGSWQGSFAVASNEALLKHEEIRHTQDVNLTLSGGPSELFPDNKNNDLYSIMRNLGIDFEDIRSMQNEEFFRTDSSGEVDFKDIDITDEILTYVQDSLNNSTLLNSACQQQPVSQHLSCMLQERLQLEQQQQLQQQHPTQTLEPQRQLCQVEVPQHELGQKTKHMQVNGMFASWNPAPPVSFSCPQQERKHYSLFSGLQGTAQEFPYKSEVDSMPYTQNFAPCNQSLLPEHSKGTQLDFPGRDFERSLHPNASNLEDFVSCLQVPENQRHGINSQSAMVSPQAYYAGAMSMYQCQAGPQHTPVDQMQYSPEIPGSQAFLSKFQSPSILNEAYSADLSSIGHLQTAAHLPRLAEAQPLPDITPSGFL
Experimental: as §1, §2, §3

[3] = molecular target: T3, AhR (Cavia porcellus, UniProt Q6J287); test: AhR induction, luciferase reporter gene (CALUX), guinea pig G16L7.5c1 cells; format: cell-based; settings: 6 h incubation
T3 construct: cells that were stably transfected with a luciferase reporter gene; endogenous in cells; host or cells: G16L7.5c1 (guinea pig)
T3 sequence (Q6J287 1-846): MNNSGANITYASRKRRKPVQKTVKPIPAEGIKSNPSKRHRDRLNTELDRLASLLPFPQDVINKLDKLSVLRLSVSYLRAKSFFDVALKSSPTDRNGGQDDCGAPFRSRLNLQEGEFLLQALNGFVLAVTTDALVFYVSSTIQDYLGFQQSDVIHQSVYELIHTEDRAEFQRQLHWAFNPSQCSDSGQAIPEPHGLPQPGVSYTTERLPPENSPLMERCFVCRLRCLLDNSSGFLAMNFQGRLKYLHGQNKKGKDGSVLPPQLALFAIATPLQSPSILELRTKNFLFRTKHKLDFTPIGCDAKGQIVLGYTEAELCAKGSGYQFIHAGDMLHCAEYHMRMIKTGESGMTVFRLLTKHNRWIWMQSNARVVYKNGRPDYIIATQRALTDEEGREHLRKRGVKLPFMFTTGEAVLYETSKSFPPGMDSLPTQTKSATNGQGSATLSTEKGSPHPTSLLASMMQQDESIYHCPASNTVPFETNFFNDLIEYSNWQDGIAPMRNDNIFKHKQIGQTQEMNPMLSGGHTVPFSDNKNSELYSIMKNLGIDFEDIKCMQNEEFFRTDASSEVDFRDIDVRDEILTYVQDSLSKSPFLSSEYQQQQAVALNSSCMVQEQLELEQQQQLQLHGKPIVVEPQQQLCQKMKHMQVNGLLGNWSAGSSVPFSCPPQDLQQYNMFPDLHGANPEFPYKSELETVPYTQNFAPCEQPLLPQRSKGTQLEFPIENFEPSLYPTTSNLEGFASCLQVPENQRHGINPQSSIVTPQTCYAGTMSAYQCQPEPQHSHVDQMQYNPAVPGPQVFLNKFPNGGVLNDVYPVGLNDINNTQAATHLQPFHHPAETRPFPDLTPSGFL
Experimental: as §1, §2, §3

[4] = molecular target: T4, AhR (Homo sapiens, UniProt P35869); test: AhR induction, luciferase reporter gene (CALUX), human HG2L7.5c1 cells; format: cell-based; settings: 6 h incubation
T4 construct: cells that were stably transfected with a luciferase reporter gene; endogenous in cells; host or cells: HG2L7.5c1 (human)
T4 sequence (P35869 11-848): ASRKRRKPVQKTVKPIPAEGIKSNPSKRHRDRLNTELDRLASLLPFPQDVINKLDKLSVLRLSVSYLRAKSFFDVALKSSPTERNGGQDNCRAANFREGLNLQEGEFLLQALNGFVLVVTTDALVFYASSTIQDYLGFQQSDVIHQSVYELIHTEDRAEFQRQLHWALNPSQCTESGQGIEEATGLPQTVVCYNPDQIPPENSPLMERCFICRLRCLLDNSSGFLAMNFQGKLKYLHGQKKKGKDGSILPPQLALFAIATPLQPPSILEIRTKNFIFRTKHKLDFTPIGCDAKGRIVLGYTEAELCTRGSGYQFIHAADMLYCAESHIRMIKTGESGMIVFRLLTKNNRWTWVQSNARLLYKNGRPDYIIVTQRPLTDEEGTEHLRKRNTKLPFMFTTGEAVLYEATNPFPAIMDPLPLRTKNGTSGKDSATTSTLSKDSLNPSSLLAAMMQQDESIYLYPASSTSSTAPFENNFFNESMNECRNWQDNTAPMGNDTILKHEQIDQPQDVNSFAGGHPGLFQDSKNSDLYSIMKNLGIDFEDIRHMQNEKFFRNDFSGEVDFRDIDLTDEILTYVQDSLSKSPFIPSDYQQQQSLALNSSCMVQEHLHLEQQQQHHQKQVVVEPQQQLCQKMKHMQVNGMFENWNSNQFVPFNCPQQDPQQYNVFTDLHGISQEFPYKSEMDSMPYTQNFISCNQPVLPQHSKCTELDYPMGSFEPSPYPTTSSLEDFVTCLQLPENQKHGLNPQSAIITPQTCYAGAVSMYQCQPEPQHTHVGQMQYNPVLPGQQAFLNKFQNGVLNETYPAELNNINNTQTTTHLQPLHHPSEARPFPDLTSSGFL
Experimental: The synthesized alkaloids were evaluated for their ability to induce AhR in four different cell lines, more specifically in human (HG2L7.5c1), mouse (H1L7.5c3), rat (H4L7.5c2) and guinea pig (G16L7.5c1) cells that were stably transfected with a luciferase reporter gene [41]. The results were calculated in EC50 (M) and compared to those of dioxin (TCDD), the principal ligand of the receptor.
Human, mouse, rat and guinea pig cells were grown in 100 mm cell culture plates (Corning Glass Works; Corning, NY, USA) using a sterile technique, maintained in alpha-minimum essential media (α-MEM) supplemented with 10% (v/v) fetal bovine serum (FBS) and G418 (1 mg/mL), and incubated at >80% humidity and 37◦C. For the CALUX analysis, plates of stable cell clones (approximately 80–100% confluent) were trypsinized and resuspended in 20 mL α-MEM. An aliquot (100 μL) of the indicated cell suspension was added into sterile 96-well tissue culture plates (Corning), and the plates were incubated for 24 h prior to ligand exposure, allowing the cells to reach confluence. […] Luciferase activity was measured using an automated microplate luminometer (Anthos Lucy2, Anthos Labtec Instruments, Wals/Salzburg, Austria) in enhanced flash mode with the automatic injection of 50 μL of Promega-stabilized luciferase reagent.

[5] = tested on: AhR; parameters: method as in PMID 31292477; settings: fold reduction vs 6-FICZ; cited from earlier work
[6] = mouse H1L7.5c3 cells, 6 h incubation, read-out: EC50, 6 h Mouse

T1 sequence (P30561 10-805 limits assumed): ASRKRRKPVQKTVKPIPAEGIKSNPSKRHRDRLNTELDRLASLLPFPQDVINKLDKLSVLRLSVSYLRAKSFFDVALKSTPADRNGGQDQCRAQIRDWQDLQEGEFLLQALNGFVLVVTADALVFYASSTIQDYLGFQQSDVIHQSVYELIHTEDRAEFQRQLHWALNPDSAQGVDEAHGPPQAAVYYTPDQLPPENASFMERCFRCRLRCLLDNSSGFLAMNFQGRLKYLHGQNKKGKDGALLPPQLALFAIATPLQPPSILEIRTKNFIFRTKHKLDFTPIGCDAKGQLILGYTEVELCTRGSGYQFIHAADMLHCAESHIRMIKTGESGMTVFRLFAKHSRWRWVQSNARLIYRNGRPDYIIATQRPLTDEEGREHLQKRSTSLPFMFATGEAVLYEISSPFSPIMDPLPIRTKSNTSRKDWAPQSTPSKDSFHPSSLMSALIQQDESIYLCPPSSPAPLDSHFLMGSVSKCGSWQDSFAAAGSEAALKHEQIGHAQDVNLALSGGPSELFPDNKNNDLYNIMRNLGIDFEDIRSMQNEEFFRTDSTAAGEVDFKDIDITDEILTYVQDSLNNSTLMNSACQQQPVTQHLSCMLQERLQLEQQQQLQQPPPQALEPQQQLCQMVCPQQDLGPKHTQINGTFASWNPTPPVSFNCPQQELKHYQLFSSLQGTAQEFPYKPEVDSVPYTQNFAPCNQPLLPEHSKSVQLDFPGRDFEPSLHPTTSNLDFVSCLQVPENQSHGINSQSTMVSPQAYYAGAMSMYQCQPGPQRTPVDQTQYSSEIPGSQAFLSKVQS
T1 sequence (P11499 whole entry partner): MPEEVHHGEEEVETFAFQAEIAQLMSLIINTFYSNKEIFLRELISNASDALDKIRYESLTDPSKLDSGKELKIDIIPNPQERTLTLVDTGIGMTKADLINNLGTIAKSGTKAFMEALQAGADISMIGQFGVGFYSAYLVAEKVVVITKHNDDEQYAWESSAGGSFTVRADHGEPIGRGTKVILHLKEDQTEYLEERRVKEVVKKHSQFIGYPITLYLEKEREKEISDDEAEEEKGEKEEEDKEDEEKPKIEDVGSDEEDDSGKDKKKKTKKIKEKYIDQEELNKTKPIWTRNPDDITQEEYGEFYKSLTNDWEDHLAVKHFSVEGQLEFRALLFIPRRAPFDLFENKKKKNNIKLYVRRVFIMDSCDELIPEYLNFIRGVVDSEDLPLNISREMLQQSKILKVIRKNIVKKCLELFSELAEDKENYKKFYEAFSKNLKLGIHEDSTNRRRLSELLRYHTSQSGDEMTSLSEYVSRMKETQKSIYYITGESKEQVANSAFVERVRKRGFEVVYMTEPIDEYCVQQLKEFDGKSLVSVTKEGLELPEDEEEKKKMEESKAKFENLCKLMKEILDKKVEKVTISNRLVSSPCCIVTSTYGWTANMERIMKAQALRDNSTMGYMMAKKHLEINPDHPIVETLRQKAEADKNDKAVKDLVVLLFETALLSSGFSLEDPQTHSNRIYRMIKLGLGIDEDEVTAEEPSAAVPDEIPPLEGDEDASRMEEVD
T1 sequence (O08915 whole entry partner): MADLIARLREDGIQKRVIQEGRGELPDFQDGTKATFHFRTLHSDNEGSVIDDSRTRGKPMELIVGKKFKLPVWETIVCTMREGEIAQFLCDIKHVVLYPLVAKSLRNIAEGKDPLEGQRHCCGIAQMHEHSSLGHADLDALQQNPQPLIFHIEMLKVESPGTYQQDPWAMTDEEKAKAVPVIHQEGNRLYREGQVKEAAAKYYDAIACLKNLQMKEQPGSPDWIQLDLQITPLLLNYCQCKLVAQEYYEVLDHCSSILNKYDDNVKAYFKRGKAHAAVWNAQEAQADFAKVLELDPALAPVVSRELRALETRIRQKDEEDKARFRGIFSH

EC50 [1, 6] [nM]	EC50 [2] [nM]	EC50 [3] [nM]	EC50 [4] [nM]	EC50 [1] [nM]	Structure (SMILES)	reduced activity in comparison to 6-FICZ [5]
0.482	0.0799	0.577			O=Cc1c2[nH]c3ccccc3c2cc2[nH]c3ccccc3c12 [Compound 1, 6-Formylindolo[3,2-b]carbazole]	
0.98	0.0095	0.174	0.64		c1ccc2c(c1)[nH]c1cc3c(cc12)[nH]c1ccccc13 [Compound 2, indolo[3,2-b]carbazole]	
0.91	0.0588	0.0913	0.308		Cc1c2[nH]c3ccccc3c2cc2[nH]c3ccccc3c12 [Compound 3, 6-methylindolo[3,2-b]carbazole]	
0.922	0.473	5.77	4.52		OCc1c2[nH]c3ccccc3c2cc2[nH]c3ccccc3c12 [Compound 4, 6-Hydroxymethylindolo[3,2-b]carbazole]	more than 10 folds
	0.0598	0.0993	0.328	0.92	Cc1c2[nH]c3ccccc3c2c(Br)c2[nH]c3ccccc3c12 [Compound 5, 6-Methyl-12-bromoindolo[3,2-b]carbazole]	

Structure (SMILES)	EC50 [1, 6] [nM]	EC50 [2] [nM]	EC50 [3] [nM]	EC50 [4] [nM]	EC50 [1] [nM]	reduced activity in comparison to 6-FICZ [5]
Clc1cc2c(cc1Cl)Oc1cc(Cl)c(Cl)cc1O2 [TCDD, reference compound]	0.1	0.059	0.1	0.57		
